Reference: patent US10709724B2, “Methods of treating mitochondrial dysfunction” (Ecole Polytechnique Federale de Lausanne (EPFL), priority 2011, dated 2020)

Key:
SIRT1 = SIRT1 activity (PGC-1α acetylation) and SIRT1 protein in C2C12 myotubes; assay type: cell-based
Method: Immunoprecipitation, SDS-PAGE, Western Blotting. Cells were lysed in lysis buffer (50 mM Tris, […], EDTA 1 mM, NP40 1%, nicotinamide 5 mM, Na-butyrate 1 in M, protease inhibitors pH7.4). Proteins were separated by SDS-PAGE and transferred onto nitrocellulose membranes. The origin of the primary and secondary antibodies used can be found as supplemental experimental procedures. Reactions were developed by enhanced chemiluminescence (Amersham, Little Chalfont, UK), PGC-1α, FOXO1 and Ndufa9 acetylation levels were analyzed by immunoprecipitation from cellular or nuclear lysates of tissues with anti-PGC-1α (Millipore), anti-FOXO1 (Cell Signaling, Danvers, Mass., USA) and anti-Ndufa9 (Abcam) antibody followed by Western blot using an acetyl-lysine antibody (Cell Signaling) that was normalized to total PGC-1a/FOXO1/Ndufa9 levels (Lagouge et al., 2006; Rodgers et al., 2005). In HEK293T cells HA-tagged PGC-1α was overexpressed and was immunoprecipitated using an anti-HA. In C2C12 myotubes, FLAG-HA tagged PGC-1α was introduced through adenoviral delivery 2 days before treatments, then IP was performed using anti-FLAG antibody and samples were processed as described. All blots were quantified by densitometry using ImageJ software. Poly(ADP-Ribose) detection was performed as previously described with slight modifications (Bai et al., PARP-1 inhibition increases mitochondrial metabolism through SIRT1 activation. Cell Metab 13, 461-468. (2011)) Briefly, PAR was detected by using a monoclonal anti-PAR antibody (Alexis, Lausanne Switzerland) by Western blotting of total protein lysates, using either […] of total worm protein lysates, […] of liver protein lysate or 200 g of muscle total protein extracts. PGC-1 acetylation was determined using PGC-1 immunoprecipitates from 2 mg of protein extracts, as described in Canto et al. (Canto et al., AMPK regulates energy expenditure by modulating NAD+ metabolism and SIRT1 activity. Nature 458, 1056 (2009)).

C2C12 myotubes = experiment: Oxygen consumption in cultured C2C12 myotubes; assay type: cell-based
Method: Oxygen Consumption in Cultured Cells. Cellular O2 consumption was measured using a Seahorse bioscience XF24 analyzer with […] biological replicates per condition, in 24 well plates at 37° C., exactly as described (Canto et al., 2009). C2C12 were infected with an adenovirus encoding for FLAG-HA-PGC-1 and either scramble or SIRT1 shRNAs 48 h previous to O2 consumption measurements. Then myotubes were treated with 1 μM PJ34 for 48 h. In order to measure the contribution of fatty acid oxidation to global O2 consumption, total cellular O2 consumption was measured for 6 successive 2 min measurements at 5 min intervals. Then, 50 μl of etomoxir (1 M; Calbiochem, San Diego, Calif., USA) were added and, after […], 6 successive 2 min measurements were performed at 5 min intervals. The remaining O2 consumption was attributed to non-lipid substrates, while the difference with the initial O2 consumption values was considered due to fatty acid oxidation.

C. elegans [1] = experiment: Quantitative RT-PCR in worms; assay type: in vivo
Method: mRNA and mtDNA Analysis. Total RNA was prepared using TRIzol (Invitrogen) according to the manufacturer's instructions. RNA was treated with DNase, and 2 μg of RNA was used for reverse transcription (RT). cDNA was purified on QIAquick PCR cleanup columns (Qiagen, Valencia, Calif., USA). 50× diluted cDNA was used for RT-quantitative PCR (RT-VCR) VCR) reactions (Bai et al., 2007). The RT-qPCR reactions were performed using the Light-Cycler system (Roche Applied Science) and a qPCR Supermix (Qiagen) with the primers for mice summarized in Table 1 and 4, and with the primers for worms summarized on Table 7. mtDNA quantification was performed as described (Lagouge et al., 2006) with the primers indicated in Table 2 and 5.

C. elegans [2] = experiment: Confocal microscopy of mitochondria in body wall muscle (pmyo-3::mito::GFP reporter); conditions: in vivo
Method: Confocal Microscopy and Image Processing Worms were immobilized with 6 mM solution of tetramisole hydrochloride (Sigma, Buchs, Switzerland) in M9 and mounted on 6% agarose pads on glass slides. Images of worms were acquired using Zeiss LSM 700 Upright confocal microscope (Carl Zeiss AG, Oberkochen, Germany) under non-saturating exposure conditions. All the snapshots were taken from the same part of C. elegans: muscles from the upper part of the worm, excluding the regions of oesophagus and vulva. For each condition multiple worms were observed and imaged. Image processing was performed with the Fiji software. One of the critical issues during the imaging process was the position of the worm, as it influences the level of background. For the uniformity of the represented images, contrast and brightness were adjusted in order, to eliminate the undesirable background signal. Neither of these manipulations was affecting the mitochondrial shape. Tracing of the mitochondrial network contour was done by the use of Gaussian blur filter followed by the application of Laplacian operator.

| SMILES | SIRT1 protein levels (SIRT1; 24 hrs) | PGC-1α acetylation (SIRT1 activation) (SIRT1; 24 hrs, dose-dependent (FIG. 6F)) | SIRT1 function (PGC-1α acetylation) during H2O2 treatment (SIRT1; H2O2 500 μM, 6 hrs, PJ34 1 μM) | SIRT1 protein levels during H2O2 treatment (SIRT1; H2O2 500 μM, 6 hrs, PJ34 1 μM) | O2 consumption rates (C2C12 myotubes; 1 μM PJ34, 48 h) | O2 consumption with SIRT1 knock-down (C2C12 myotubes; SIRT1 shRNA) | substrate contribution to the increase in O2 consumption (C2C12 myotubes; etomoxir) | expression of genes of mitochondrial oxidative metabolism (cts-1, cox-4) (C. elegans [1]; day 3 of adulthood) | daf-16 expression (C. elegans [1]; in vivo) | sod-3 expression (C. elegans [1]; in vivo) | mitochondrial content in body wall muscle (C. elegans [2]) | mitochondrial morphology in body wall muscle (C. elegans [2]) |
| --- | --- | --- | --- | --- | --- | --- | --- | --- | --- | --- | --- | --- |
| CN(C)CC(=O)Nc1ccc2[nH]c(=O)c3ccccc3c2c1 [PJ34] | did not change SIRT1 protein levels | deacetylation of PGC-1α | enhanced SIRT1 function | SIRT1 protein levels did not change | enhanced oxidative metabolism | largely blunted | combination of enhanced oxidation of lipid and non-lipid substrates | – | – | – | – | – |
| NC(=O)c1ccc[n+]([C@@H]2O[C@H](CO)[C@@H](O)[C@H]2O)c1 [NR, nicotinamide riboside] | – | – | – | – | – | – | – | trend for increased cts-1 expression | without affecting daf-16 mRNA levels | significantly higher sod-3 expression | increase muscle mitochondrial content | affect mitochondrial morphology |
